According to patent publication US11787840B2, “Compositions and methods for treating and preventing autoimmune induced cardiac long QT syndrome” (The United States Government As Represented By The …, priority 2019, dated 2023):
Entries after “also recorded” stand apart in the source; their conditions may differ.

Tested on: Ro52-immunized guinea-pigs (anti-Ro Abs associated QTc prolongation)
Assay: QTc (ECG) in Ro52-immunized guinea pigs after linear peptide 4
Type: in vivo, guinea pig
Conditions: linear peptide 4, 2 mg/kg, one-time injection at day 15; ECG through day 30; versus immunized control without peptide
Text: Immunization and peptide administration protocol. The overall experimental protocol for immunization and administration of the peptide used to generate data in FIG. 2 is shown in FIG. 6. Specifically, two group of guinea pigs (control and experimental) were first immunized subcutaneously initially on day 0 (Do) with Ro52 antigen followed by a booster at days 10 and 15, and anti-Ro antibodies levels were monitored by ELISA. The control group was not administered any peptide treatment except the immunization. The experimental group was injected with the linear peptide #4 (2 mg/kg) at day 15.

With GNMEQPHMDSRIGWLHNLGDQ [Peptide 4] the “effect on QTc interval” value was “rescued and normalized the QTc interval; also recorded: drastic shortening of QTc”.
